Source: PMC5884648, “Relationship between the agonist activity of synthetic ligands of TRAIL-R2 and their cell surface binding modes” (Oncotarget, 2018)
Where a SMILES comes first, the peptide text is derived from it. Bridges are numbered along the chain shown (N, C = ends). The star is where a group is joined. X3 = N=c1ccc2c(-c3cc(C(=O)*)ccc3C(=O)O)c3ccc(N)c(S(=O)(=O)O)c3oc-2c1S(=O)(=O)O

Assays:
BJAB cells = assay: Cell viability MTS assay, BJAB; format: cell-based, human; details: 24 hours
Experimental: BJAB, Jurkat and HCT116 cells (10^5 cells/well) were cultured in 100 µL of culture medium in 96-flat bottom well plates. The next day, cells were treated with the indicated concentrations of the different TRAILmin/DR5 peptides. After 24 hours of treatment cell viability measurement was performed by the MTS assay according to the manufacturer specification (Promega Corporation, Madison, WI, USA).

human TRAIL-R2 = biological target: T1, human TRAIL-R2 (Homo sapiens, UniProt O14763); assay: Surface plasmon resonance on sensor-immobilized TRAIL-R2; format: binding; details: for koff / kon: SPR, 25° C, Langmuir model
T1 construct: purchased Enzo Life Sciences
T1 sequence (O14763 56-440): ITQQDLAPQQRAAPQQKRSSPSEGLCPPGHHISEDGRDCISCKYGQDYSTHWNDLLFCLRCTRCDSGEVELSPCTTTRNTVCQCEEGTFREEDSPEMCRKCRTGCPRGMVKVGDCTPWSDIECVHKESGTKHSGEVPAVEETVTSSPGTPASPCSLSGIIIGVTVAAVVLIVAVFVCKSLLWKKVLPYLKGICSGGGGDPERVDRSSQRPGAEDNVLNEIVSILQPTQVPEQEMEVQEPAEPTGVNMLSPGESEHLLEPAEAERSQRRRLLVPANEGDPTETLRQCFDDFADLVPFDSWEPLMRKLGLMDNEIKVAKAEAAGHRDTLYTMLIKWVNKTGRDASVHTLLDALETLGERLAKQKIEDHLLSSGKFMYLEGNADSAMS
Experimental: SPR assays were performed on a Biacore T200™, at 25° C. The running buffer was HBS-EP [10 mM HEPES (pH 7.4) containing 0.15 M NaCl, 3.4 mM EDTA and 0.005% (v/v) Tween P20]. The human TRAIL-R2 (Enzo Life Sciences, Farmingdale, NY, USA) receptor was immobilized on a sCM5 sensor chip (GE Healthcare) using the standard amine coupling procedure. The receptors were diluted in 10 mM acetate buffer (pH 5.0) at a concentration of 5 μg/mL. The TRAIL-R2 immobilization level on the sensor chip was 430 RU. Peptides were injected at a flow rate of 5 μL/min for 120 s and allowed to dissociate for an additional 420 s. Surfaces were then regenerated for 5 s with 25 mM HCl. All binding curves were double-referenced (i.e. subtraction of the data of the empty flow cell followed by the subtraction of the data from a running buffer injection cycle).
(§1) Double-referenced SPR binding curves sets were fitted globally using the BIAevaluation 4.1.1 (GE Healthcare Biacore) or TraceDrawer (Ridgeview Diagnostics AB, Uppsala, Sweden) softwares. The signal recorded with the LigandTracer on an empty spot or slide was subtracted from that recorded on cell-carrying slides. The resulting binding curves were analyzed by kinetic distribution analysis using the tool Interaction Map (Ridgeview Diagnostics AB, Uppsala, Sweden). Interaction Map decomposes the kinetic curve recorded for the binding of a homogeneous ligand to a heterogeneous group of targets into its different components. Results are represented as interaction maps (kon versus koff, log scale), where the color of each populated area represents its degree of contribution to the kinetic curve (red = high contribution, blue = low contribution).

[1] = biological target: TRAIL-R2 expressed on BJAB cells (Homo sapiens, UniProt O14763); assay: LigandTracer real time binding on living BJAB cells; parameters: expressed in transfected cells; details: BJAB cells expressing TRAIL-R2
Sequence of TRAIL-R2 expressed on BJAB cells (O14763 56-440): as above
Experimental: The adherent cells HCT116-TRAIL-R2-DEF and HCT116 cells were directly plated on glass slides (Ø20 mm) (10^6 cells/well). The cells in suspension (BJAB and BJAB-TRAIL-R2-DEF) were covalently adhered to glass slides coated with poly-L-lysine (0.1% v/v) (Sigma Aldrich, Saint Louis, MO, USA). The adhesion was strong enough for measurement during 10h. After 24 hours, the slides were fixed with superglue at different locations of a Petri dish, which was inserted in the LigandTracer Green instrument (Ridgeview Instrument AB, Uppsala, Sweden). An empty spot or empty glass slide fixed to the Petri dish was used to record the background signal. This set-up allowed the simultaneous monitoring of the binding of a given peptide to different cell-carrying glass slides fixed to the dish. Three mL of solution (culture medium without or with fluorescent peptide) were added to the dish. In the LigandTracer instrument, the dish is tilted and rotates. Consequently the 3 mL solution covers only the lower part of the dish and each cell-carrying slide is alternatively in contact and out of contact with the solution (at intervals of 8 to 16 s). The fluorescence signal is recorded over time when the slide is out of the solution, and therefore corresponds to the amount of bound peptide. The solution in the dish was initially the culture medium (∼30 min) to provide a stable base line. The fluorescent peptide was then added in increasing doses (10, 30 and 90 nM) every two to three hours. Finally the peptide-containing sample was replaced with fresh medium and the dissociation of the peptide from the cells was followed overnight. The measurements were conducted at room temperature (approximately 20° C).
as §1

Row | SMILES | apoptosis induction in BJAB cells (BJAB cells) | koff (human TRAIL-R2) [s⁻¹] | kon (human TRAIL-R2) [M⁻¹ s⁻¹] | cell surface binding [1] | Rmax (human TRAIL-R2; TRAIL-R2 surface 1, one:one interaction model) | Rmax (human TRAIL-R2; TRAIL-R2 surface 2, one:one interaction model)
1 | CC[C@H](C)[C@@H]1NC(=O)[C@H](CCCNC(=N)N)NC(=O)[C@H](CC(N)=O)NC(=O)[C@H](CC(=O)O)NC(=O)[C@H](CC(C)C)NC(=O)[C@@H](NC(=O)[C@H](CC(=O)O)NC(=O)[C@H](Cc2c[nH]c3ccccc23)NC(C)=O)CSSC[C@@H](C(=O)N[C@H](C(=O)N[C@@H](CCCCNC(=O)c2ccc(C(=O)O)c(-c3c4ccc(=N)c(S(=O)(=O)O)c-4oc4c(S(=O)(=O)O)c(N)ccc34)c2)C(=O)N[C@@H](CC(C)C)C(N)=O)C(C)C)NC(=O)[C@H](CCC(N)=O)NC(=O)[C@H](CCCNC(=N)N)NC(=O)[C@H](CCCNC(=N)N)NC(=O)CNC1=O [f1m] (Ac-WDCLDNRIGRRQCVK(X3)L-NH2; disulfide 3-13; N-terminus and C-terminus assumed) | did not induce apoptosis | 0.0014 | 14000 | weak binding |  | 
2 | CC[C@H](C)[C@@H]1NC(=O)[C@H](CCCNC(=N)N)NC(=O)[C@H](CC(N)=O)NC(=O)[C@H](CC(=O)O)NC(=O)[C@H](CC(C)C)NC(=O)[C@@H](NC(=O)[C@H](CC(=O)O)NC(=O)[C@H](Cc2c[nH]c3ccccc23)NC(C)=O)CSSC[C@@H](C(=O)N[C@H](C(=O)N[C@@H](CCCNC(=N)N)C(=O)N[C@@H](CC(C)C)C(N)=O)C(C)C)NC(=O)[C@H](CCC(N)=O)NC(=O)[C@H](CCCNC(=N)N)NC(=O)[C@H](CCCCN)NC(=O)CNC1=O [2m] (Ac-WDCLDNRIGKRQCVRL-NH2; disulfide 3-13; N-terminus and C-terminus assumed) |  | 0.016 | 3600 |  |  | 
3 | CC[C@H](C)[C@@H]1NC(=O)[C@H](CCCNC(=N)N)NC(=O)[C@H](CC(N)=O)NC(=O)[C@H](CC(=O)O)NC(=O)[C@H](CC(C)C)NC(=O)[C@@H](NC(=O)[C@H](CC(=O)O)NC(=O)[C@H](Cc2c[nH]c3ccccc23)NC(C)=O)CSSC[C@@H](C(=O)N[C@H](C(=O)N[C@@H](CCCCN)C(=O)N[C@@H](CC(C)C)C(N)=O)C(C)C)NC(=O)[C@H](CCC(N)=O)NC(=O)[C@H](CCCNC(=N)N)NC(=O)[C@H](CCCNC(=N)N)NC(=O)CNC1=O [1m] (Ac-WDCLDNRIGRRQCVKL-NH2; disulfide 3-13; N-terminus and C-terminus assumed) |  | 0.0026 | 5300 |  | 33 | 11
